Results as given in patent US8232284B2, “Heteroaryloxy quinazoline derivative” (MSD K. K., priority 2007, dated 2012).

Legend:
male beagles [1] = experiment: Pharmacological Test Example 2: drug efficacy test in dogs (plasma glucose level AUC); format: in vivo; conditions: for Percentage reduction (%) in plasma glucose level AUC: male beagles fasted overnight, oral 1 mg/kg in 0.5% methyl cellulose, compared to control group up to 4 hours after administration
Method: (§1) From the cephalic vein of male beagles fasted overnight (10.4-13.7 kg body weight), blood was collected prior to administration, followed by oral administration of the test drug suspended in a 0.5% methyl cellulose solution (1 mg/kg in both of the compounds of Example A and Example 18), while a 0.5% methyl cellulose solution was orally administered to the control group. The blood was collected every 0.5 or 1 hour after the administration of the test drug. Plasma was separated from the obtained blood to determine a plasma glucose level using Determina-GL-E (Kyowa Medics). Percentage reductions in plasma glucose level AUC compared to the control group up to 4 hours after the administration were described below.

male beagles [2] = experiment: Pharmacological Test Example 3: drug efficacy test in dogs (plasma glucose level AUC); format: in vivo; conditions: male beagles fasted overnight; oral 1 mg/kg in 0.5% methyl cellulose; compared to control group up to 4 hours after administration
Method: as §1, with “(8.5-13.7” for “(10.4-13.7”, “Examples 30” for “the compounds of Example A”, “31),” for “Example 18),”, “Medics).” for “Medics). Percentage reductions in plasma glucose level AUC compared to the control group up to 4 hours after the administration were described below.”
Percentage reductions in plasma glucose level AUC compared to the control group up to 4 hours after the administration were described below.

[3] = biological target: T1, recombinant human liver GK (Homo sapiens, UniProt P35557); experiment: Glucokinase-activating effect (Thio-NADH coupled assay with G6PDH, 2.5 mM glucose); format: biochemical; conditions: comparative test in vitro, similar to pharmacological experiment 1; read-out: GK activity EC50
T1 construct: made in house; host or cells: E. coli
T1 sequence (P35557 1-466 isoform P35557-2): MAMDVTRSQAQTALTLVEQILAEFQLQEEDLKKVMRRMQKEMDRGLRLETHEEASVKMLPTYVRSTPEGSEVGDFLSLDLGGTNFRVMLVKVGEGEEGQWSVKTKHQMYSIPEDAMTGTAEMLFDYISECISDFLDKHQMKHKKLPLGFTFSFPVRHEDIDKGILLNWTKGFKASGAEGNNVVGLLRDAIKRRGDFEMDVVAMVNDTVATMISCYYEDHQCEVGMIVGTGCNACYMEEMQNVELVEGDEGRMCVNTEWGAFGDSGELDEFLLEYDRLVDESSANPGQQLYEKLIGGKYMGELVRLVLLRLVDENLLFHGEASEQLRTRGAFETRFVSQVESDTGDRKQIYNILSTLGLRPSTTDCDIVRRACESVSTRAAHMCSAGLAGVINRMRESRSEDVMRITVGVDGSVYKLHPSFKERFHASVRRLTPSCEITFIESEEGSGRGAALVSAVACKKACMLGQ
Excerpt: The excellent glucokinase-activating effect of the compounds of the formula (I) may be determined by a method described in literature (for example, Diabetes, Vol. 45, pp. 1671-1677, 1996), or in accordance with it.
The glucokinase activity may be determined not by directly measuring glucose-6-phosphate but by measuring the level of Thio-NADH, which is produced when a reporter enzyme, glucose-6-phosphate dehydrogenase produces phosphogluconolactone from glucose-6-phosphate, and based on the level, the degree of glucokinase activation by the compound tested may be determined
In this assay, used was a recombinant human liver GK, which was expressed by E. coli as a FLAG fusion protein therein and was purified by ANTIFLAG M2 AFFINITY GEL (Sigma).
Using a flat-bottomed 96-well plate, the assay was carried out at 30° C. 69 μl of an assay buffer (25 mM Hepes Buffer/pH=7.2, 2 mM MgCl2, 1 mM ATP, 0.5 mM TNAD, 1 mM dithiothreitol) was put into the plate, and 1 μl of a DMSO solution of the compound or DMSO alone as a control was added thereto. Next, 20 μl of an enzyme mixture (FLAG-GK, 20 U/ml G6PDH) cooled in ice was added to it, and 10 μl of a substrate, 25 mM glucose was added to it, and the reaction was initiated (final glucose concentration=2.5 mM).
After the start of the reaction, the increase in the absorbance at 405 nm was measured for 12 minutes at intervals of 30 seconds, and the increase for the first 5 minutes was used for assessing the compound tested. FLAG-GK was added so that the absorbance increase after 5 minutes in the presence of 1% DMSO could be from 0.04 to 0.06.
The OD level of the DMSO control was set as 100%; and the OD level of the test compound at different concentrations was determined. From the OD level at each concentration, Emax (%) and EC50 (μM) were computed and used as the index of the GK-activating potency of the compound.
The comparative test was conducted to compare the compound of example 18, 31 and 32 in this invention with the compound (A) in the patent document 1. The test method in vitro was similar to pharmacological experiment 1 (glucokinase-activating effect).

Cc1cnc(Nc2ncnc3ccc(Oc4ncccc4Cl)cc23)cn1 [Compound A]
drug efficacy in the dogs (male beagles [1]; in vivo tests in dogs, summary statement): no drug efficacy | Percentage reduction (%) in plasma glucose level AUC (male beagles [1]): −1% | Percentage reduction (%) in plasma glucose level AUC (male beagles [2]): −1%

Cc1cnc(Nc2ncnc3ccc(Oc4ccc(OCCN(C)C)cn4)cc23)cn1 [Example 31, 6-({5-[2-(dimethylamino)ethoxy]pyridin-2-yl}oxy)-N-(5-methylpyrazin-2-yl)quinazoline-4-amine]
EC50 [3]: 440 nM | Percentage reduction (%) in plasma glucose level AUC (male beagles [2]): 7.9%

CCNCCOc1cnc(Oc2ccc3ncnc(Nc4ccn(C)n4)c3c2)c(Cl)c1.Cl [Example 18, 6-({3-chloro-5-[2-(ethylamino)ethoxy]pyridin-2-yl}oxy)-N-(1-methyl-1H-pyrazol-3-yl)quinazoline-4-amine hydrochloride]
EC50 [3]: 30 nM | Percentage reduction (%) in plasma glucose level AUC (male beagles [1]): 26%

CNCCOc1cnc(Oc2ccc3ncnc(Nc4cnc(C)cn4)c3c2)c(Cl)c1.Cl [Example 32, 6-({3-chloro-5-[2-(methylamino)ethoxy]pyridin-2-yl}oxy)-N-(5-methylpyrazin-2-yl)quinazoline-4-amine hydrochloride]
EC50 [3]: 40 nM | Percentage reduction (%) in plasma glucose level AUC (male beagles [2]): 17.5%
